The values below come from patent US20260053942A1, “STING AGONIST IMMUNOSTIMULATORY ANTIBODY DRUG CONJUGATES” (ASTELLAS PHARAMA INC., priority 2024, published 2026).

The test system of experiment [1] is NCI-H292 cells. Kind of experiment: NCI-H292/PBMC co-culture: tumor cell killing (NCI-H292 cell count). In kind it is cell-based, human. To be noted: TROP2 positive NCI-H292/PBMC co-culture. On the procedure: (§1) The ability of different TROP2 iADCs to induce cancer cell killing, immune activation, and cytokine release was evaluated in an in vitro co-culture assay with human cancer cells and human PBMCs.
(§2) Residual RBCs were removed using ACK lysis buffer (Gibco) for 10 minutes, followed by DPBS wash. Isolated PBMCs were counted, resuspended in freezing medium (Sigma) and stored in a freezing vessel at −80° C. for 24 hours before being transferred to vapor-phase liquid nitrogen for long-term storage.
(§3) For the co-culture assay, cancer cells were plated on transparent flat bottom polystyrene plates and allowed to attach overnight. The next day, serially diluted (1:4) test articles were formulated at 3× starting concentration in complete RPMI media and added onto each well. […]
(§4) On the day of sample collection, cell culture supernatants were collected and stored at −80° C. until cytokine release analyses were performed. […] Cells were then washed with FACS buffer again and read on Cytek flow cytometer. […]
(§5) The ability of different TROP2 iADCs to induce cancer cell killing, immune activation, and cytokine release was evaluated in an in vitro co-culture assay with TROP2 positive CaoV3 cells or NCI-H292 cells and human PBMCs. h1925-C06, an anti-TROP2 antibody, was conjugated to LP-C1 on the heavy chain Y180/F404 sites and to different STING agonist linker payloads at light chain K42 sites. […]

The next experiment concerns human PBMCs. Kind of experiment: NCI-H292/PBMC co-culture: monocyte/immune cell count and activation (FACS). In kind it is cell-based. To be noted: TROP2 positive NCI-H292/PBMC co-culture. The method, then:
as §1, §2, §3, §4, §5

Experiment [2] concerns NCI-H460 cells and human PBMCs. Kind of experiment: NCI-H460/PBMC co-culture (TROP2 negative): cytokine (IP-10) release. In kind it is cell-based. Also noted: key: NC = Not Calculable due to incomplete curve. The method, then:
For the co-culture assay, cancer cells were plated on transparent flat bottom polystyrene plates and allowed to attach overnight. The next day, serially diluted (1:4) test articles were formulated at 3× starting concentration in complete RPMI media and added onto each well. Human PBMCs were thawed and resuspended in RPMI supplemented with 10% heat-inactivated fetal bovine serum from Hyclone, 1% Penicillin/Streptomycin and 2 mM/L-glutamax. PBMCs were then added into the same well at a final ratio of PBMCs:cancer cells=30:1. Plates were incubated for 2 or 3 days at 37° C. with 5% CO2 in a cell culture incubator.
To measure the cytokine released in this assay, customized MSD V-plex plates were ordered to measure human IL6, IP-10, TNFα, IFNγ, IL-1α, MCP-1, MIP1α. The supernatant was thawed and diluted 1:50 using dilution buffer provided by the vendor before being added into the MSD plates. Cytokine measurement in the cell culture supernatant was carried out using protocols provided by the vendor. Raw data generated by the Meso Scale Discovery (MSD®) SQ120 plate reader were imported into MSD Discovery Workbench software. Unknown sample values were interpolated from standard curves by the software and imported into GraphPad Prism. Each cytokine level was fitted with non-linear regression analysis, using log(agonist) vs. response, variable slope, 4-parameter fit equation in GraphPad Prism. […]

The test system of experiment [3] is NCI-H292 cells. As to the kind of experiment: Immunogenic cell death: cell surface calreticulin (CALR) on live cells (flow cytometry), 48 hours. In kind it is cell-based, human. The method, then: Immunogenic cell death elicited by the TROP2 ADC, iSAC, iADCs and exatecan were measured by cell surface translocate of calreticulin and release of HMGB1 in the cell culture supernatant. Briefly, TROP2 positive cell line NCI-H292 were seeded into a 96-well flat bottom plate 4 hours prior to the initialization of the assay. Test articles were formulated at a 2× starting concentration in cell culture medium, and samples were serial diluted (1:3) under sterile conditions and added onto the cells in duplicates. After incubation at 37° C. in a CO2 incubator for 48 hours, the cell supernatant was collected for measuring HMGB1 and the adherent cells were collected for calreticulin expression on the cell surface.
NCI-H292 cells were detached using Accutase (Innovative Cell Technologies) and viability was accessed using a 1:500 dilution of Zombie NIR viability dye. […] Surface calreticulin measures on the live cells were gathered using an Attune NXT Flow Cytometer (ThermoFisher Scientific) to obtain median fluorescence intensity values. All data were fitted with non-linear regression analysis, using log(agonist) vs. response, variable slope, 4 parameter fit equation using GraphPad Prism.

Each structure is given as a SMILES string. pEC50: −log10 of the molar value.

What is called pEC50 is the negative decadic logarithm of the EC50, by convention in mol/L. Regarding `CC[C@@]1(O)C(=O)OCc2c1cc1n(c2=O)Cc2c-1nc1cc(F)c(C)c3c1c2[C@@H](N)CC3` [Exatecan, exatecan, reference compound], the “tumor cell killing (in words)” value in the experiment with NCI-H292 cells [1] is “potent tumor cell killing”. In addition, the “immune cell activation and cytokine release (in words)” value in the experiment with human PBMCs is “did not induce activation of any immune populations”. The “IP-10 Release Span” value in experiment [2] is recorded as “NC”. In the experiment on NCI-H292 cells [3] (Homo sapiens, NCI-H292 live cells, cell surface), this compound gave a pEC50 of 9.72. The “induction of CALR on live cells compared to untreated cells” value in the experiment on NCI-H292 cells [3] (NCI-H292 cells) was approximately 2 fold. Moreover, the “Calreticulin Span” value in the experiment on NCI-H292 cells [3] (NCI-H292 live cells, cell surface) is reported as 783 MFI.
